Results reported in PubChem BioAssay AID1963826 (Molecular Pharmacology Branch, DTP, NCI, 2024).

Test system: 926638-142-R-J1-PDC complex spheroid viability
Experiment: Anticancer human tumor 926638-142-R-J1-PDC patient-derived endometrial carcinoma cell line growth inhibition [POLQ]
Details: for IC50: curve of first compound; for viability, T/C: stronger effect = lower value
Method in brief: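 PDC + HUVEC + MSC complex spheroids; POLQ inhibitors ± partner drugs; top conc. at/near clinical Cmax, else 10 microM (SN-38 1 microM), half-log dilutions; 37 degrees C, 5% CO2.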

[1] = second compound 0.0316 µM, first compound 0.0316 µM
[2] = second compound 0.0316 µM, first compound 0.1 µM
[3] = second compound 0.0316 µM, first compound 0.316 µM
[4] = second compound 0.0316 µM, first compound 1 µM
[5] = second compound 0.0316 µM, first compound 3.16 µM
[6] = second compound 0.0316 µM, first compound 10 µM
[7] = second compound 0.1 µM, first compound 0.0316 µM
[8] = second compound 0.1 µM, first compound 0.1 µM
[9] = second compound 0.1 µM, first compound 0.316 µM
[10] = second compound 0.1 µM, first compound 1 µM
[11] = second compound 0.1 µM, first compound 3.16 µM
[12] = second compound 0.1 µM, first compound 10 µM
[13] = second compound 0.316 µM, first compound 0.0316 µM
[14] = second compound 0.316 µM, first compound 0.1 µM
[15] = second compound 0.316 µM, first compound 0.316 µM
[16] = second compound 0.316 µM, first compound 1 µM
[17] = second compound 0.316 µM, first compound 3.16 µM
[18] = second compound 0.316 µM, first compound 10 µM
[19] = second compound 1 µM, first compound 0.0316 µM
[20] = second compound 1 µM, first compound 0.1 µM
[21] = second compound 1 µM, first compound 0.316 µM
[22] = second compound 1 µM, first compound 1 µM
[23] = second compound 1 µM, first compound 3.16 µM
[24] = second compound 1 µM, first compound 10 µM
[25] = second compound 3.16 µM, first compound 0.0316 µM
[26] = second compound 3.16 µM, first compound 0.1 µM
[27] = second compound 3.16 µM, first compound 0.316 µM
[28] = second compound 3.16 µM, first compound 1 µM
[29] = second compound 3.16 µM, first compound 3.16 µM
[30] = second compound 3.16 µM, first compound 10 µM
[31] = second compound 10 µM, first compound 0.0316 µM
[32] = second compound 10 µM, first compound 0.1 µM
[33] = second compound 10 µM, first compound 0.316 µM
[34] = second compound 10 µM, first compound 1 µM
[35] = second compound 10 µM, first compound 3.16 µM
[36] = second compound 10 µM, first compound 10 µM
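Further: spheroids exposed to drugs for one week before readout.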
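Wherever viability, T/C is given: percent viability relative to DMSO vehicle control wells set as 100%.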

SMILES: O=c1[nH]cc(F)c(=O)[nH]1 + Nc1ccc(C#CCN(C(=O)Cc2ncc(C(F)(F)F)cc2C(F)(F)F)c2ccc(F)cc2)nn1
- IC50 (second compound 0.0316 µM): > 10 µM
- IC50 (second compound 0.1 µM): > 10 µM
- IC50 (second compound 0.316 µM): > 10 µM
- IC50 (second compound 1 µM): > 10 µM
- IC50 (second compound 3.16 µM): > 10 µM
- IC50 (second compound 10 µM): > 10 µM
- viability, T/C [1]: 101%
- viability, T/C [2]: 107%
- viability, T/C [3]: 92.8%
- viability, T/C [4]: 82.9%
- viability, T/C [5]: 86.5%
- viability, T/C [6]: 80.7%
- viability, T/C [7]: 100%
- viability, T/C [8]: 116%
- viability, T/C [9]: 107%
- viability, T/C [10]: 83.4%
- viability, T/C [11]: 90.8%
- viability, T/C [12]: 78.8%
- viability, T/C [13]: 85.5%
- viability, T/C [14]: 98.1%
- viability, T/C [15]: 102%
- viability, T/C [16]: 97.8%
- viability, T/C [17]: 85.5%
- viability, T/C [18]: 83%
- viability, T/C [19]: 103%
- viability, T/C [20]: 85%
- viability, T/C [21]: 99.4%
- viability, T/C [22]: 75.9%
- viability, T/C [23]: 77.7%
- viability, T/C [24]: 76.8%
- viability, T/C [25]: 97.7%
- viability, T/C [26]: 93.5%
- viability, T/C [27]: 88.1%
- viability, T/C [28]: 92.5%
- viability, T/C [29]: 82.1%
- viability, T/C [30]: 70.2%
- viability, T/C [31]: 102%
- viability, T/C [32]: 81%
- viability, T/C [33]: 93.2%
- viability, T/C [34]: 85.7%
- viability, T/C [35]: 78.2%
- viability, T/C [36]: 74.3%

SMILES: COc1cc(C2c3cc4c(cc3C(OC3OC5COC(C)OC5C(O)C3O)C3COC(=O)C23)OCO4)cc(OC)c1O (stereo unspecified) + Nc1ccc(C#CCN(C(=O)Cc2ncc(C(F)(F)F)cc2C(F)(F)F)c2ccc(F)cc2)nn1
- IC50 (second compound 0.0316 µM): > 10 µM
- IC50 (second compound 0.1 µM): > 10 µM
- IC50 (second compound 0.316 µM): > 10 µM
- IC50 (second compound 1 µM): > 10 µM
- IC50 (second compound 3.16 µM): > 10 µM
- IC50 (second compound 10 µM): > 10 µM
- viability, T/C [1]: 99.2%
- viability, T/C [2]: 81.6%
- viability, T/C [3]: 80.3%
- viability, T/C [4]: 73.1%
- viability, T/C [5]: 77.8%
- viability, T/C [6]: 58.1%
- viability, T/C [7]: 96.6%
- viability, T/C [8]: 101%
- viability, T/C [9]: 70.3%
- viability, T/C [10]: 67.4%
- viability, T/C [11]: 80%
- viability, T/C [12]: 53.5%
- viability, T/C [13]: 106%
- viability, T/C [14]: 77.7%
- viability, T/C [15]: 71.7%
- viability, T/C [16]: 69.4%
- viability, T/C [17]: 69.7%
- viability, T/C [18]: 54%
- viability, T/C [19]: 102%
- viability, T/C [20]: 83.1%
- viability, T/C [21]: 80.4%
- viability, T/C [22]: 74.4%
- viability, T/C [23]: 69.3%
- viability, T/C [24]: 57%
- viability, T/C [25]: 83.3%
- viability, T/C [26]: 87.2%
- viability, T/C [27]: 71.2%
- viability, T/C [28]: 63.3%
- viability, T/C [29]: 76.1%
- viability, T/C [30]: 51%
- viability, T/C [31]: 94.9%
- viability, T/C [32]: 82.6%
- viability, T/C [33]: 73.3%
- viability, T/C [34]: 63%
- viability, T/C [35]: 69%
- viability, T/C [36]: 53.4%

SMILES: COc1ccc([C@@H](O)c2cc(-c3ncnc4cc(N5CCOCC5)ccc34)c(F)cc2Cl)nn1 + Nc1ccc(C#CCN(C(=O)Cc2ncc(C(F)(F)F)cc2C(F)(F)F)c2ccc(F)cc2)nn1
- IC50 (second compound 0.0316 µM): 0.631 µM
- IC50 (second compound 0.1 µM): 0.45 µM
- IC50 (second compound 0.316 µM): 0.572 µM
- IC50 (second compound 1 µM): 0.708 µM
- IC50 (second compound 3.16 µM): 0.628 µM
- IC50 (second compound 10 µM): 0.537 µM
- viability, T/C [1]: 90.7%
- viability, T/C [2]: 82%
- viability, T/C [3]: 58.1%
- viability, T/C [4]: 47.2%
- viability, T/C [5]: 20.1%
- viability, T/C [6]: 14.7%
- viability, T/C [7]: 101%
- viability, T/C [8]: 83.3%
- viability, T/C [9]: 56.6%
- viability, T/C [10]: 34%
- viability, T/C [11]: 19.4%
- viability, T/C [12]: 12.7%
- viability, T/C [13]: 119%
- viability, T/C [14]: 101%
- viability, T/C [15]: 67.1%
- viability, T/C [16]: 33.9%
- viability, T/C [17]: 19.8%
- viability, T/C [18]: 15%
- viability, T/C [19]: 103%
- viability, T/C [20]: 88.9%
- viability, T/C [21]: 71.9%
- viability, T/C [22]: 41.2%
- viability, T/C [23]: 20%
- viability, T/C [24]: 13.2%
- viability, T/C [25]: 91.6%
- viability, T/C [26]: 75.8%
- viability, T/C [27]: 67%
- viability, T/C [28]: 39.3%
- viability, T/C [29]: 22.9%
- viability, T/C [30]: 12.7%
- viability, T/C [31]: 81.4%
- viability, T/C [32]: 76.2%
- viability, T/C [33]: 65.6%
- viability, T/C [34]: 32%
- viability, T/C [35]: 15%
- viability, T/C [36]: 10.2%
